Results on one compound are retold here after PMC6686011, “Ruthenium(II) complexes with 6-methyl-2-thiouracil selectively reduce cell proliferation, cause DNA double-strand break and trigger caspase-mediated apoptosis through JNK/p38 pathways in human acute promyelocytic leukemia cells” (Scientific Reports, 2019).

Usually IC50 stands for the point on the concentration scale where inhibition reaches its midpoint.

Data set [1] concerns HL-60 cells. The data set can be described thus: Trypan blue exclusion assay. The conditions noted are these: HL-60, 24 h, 1 μM. In kind it is cell-based, human. The method, then:
The number of viable cells and non-viable (take up trypan blue) were counted by TBE method. Shortly, 90 μL was removed from the cell suspension and 10 μL of trypan blue (0.4%) was added. Cell counting was performed using a light microscope with a neubauer chamber.

Data set [2] has as its system SCC-4 (human oral squamous cell carcinoma). In words: Cytotoxicity, alamar blue assay. The conditions noted are these: Homo sapiens, SCC-4; alamar blue, 72 h; read-out: IC50 and 95% CI, SCC-4. The class given is cell-based. The method, then: (§1) Cytotoxicity was measured using alamar blue assay and was performed following the procedure that was described previously[21],[22]. Briefly, cells were inserted in 96-well plates and incubated overnight. Then, the complexes were dissolved in dimethyl sulfoxide (DMSO, LGC Biotechnology, São Paulo, SP, Brazil) and added to each well and incubated for 72 h. […] Before the end of treatment (4 h for cell lines and 24 h for PBMC), 20 μL of a stock solution (0.312 mg/mL) of alamar blue (resazurin, Sigma-Aldrich Co.) were added to each well. Absorbance at 570 nm and 600 nm was measured using SpectraMax 190 Microplate Reader (Molecular Devices, Sunnyvale, CA, USA).
(Alamar Blue is a resazurin reagent that responds to reducing activity.)

The test system of data set [3] is HL-60 (human acute promyelocytic leukemia). The data set can be described thus: Cytotoxicity, alamar blue assay. The conditions noted are these: Homo sapiens, HL-60; alamar blue, 72 h; read-out: IC50 and 95% CI, HL-60. The class given is cell-based. The method, then: as §1
Data set [4] has as its system WT SV40 MEF (wild-type immortalized mouse embryonic fibroblasts). The data set can be described thus: Cytotoxicity, alamar blue assay. In kind it is cell-based. The conditions noted are these: Mus musculus, MEF, 72 h, read-out: IC50, WT SV40 MEF cell line. As to the method:
as §1

Data set [5] has as its system BAD KO SV40 MEF (immortalized mouse embryonic fibroblast with the BAD gene knocked out). In words: Cytotoxicity, alamar blue assay. The class given is cell-based. The conditions noted are these: Mus musculus, MEF, 72 h, read-out: IC50, BAD KO SV40 MEF cell line. The method, then: as §1
Data set [6] has as its system HL-60 cells. The data set can be described thus: Mitochondrial transmembrane potential, rhodamine 123. The class given is cell-based, human. The conditions noted are these: HL-60, 24 h; DOX 1 µM. The method, then: Mitochondrial transmembrane potential was determined by retention of dye rhodamine 123 as described previously. Briefly, cells were incubated with rhodamine 123 (5 μg/mL, Sigma-Aldrich Co.) at room temperature for 15 min in dark and washed with saline solution. Cells were incubated again in saline solution for more 30 min in dark and cell fluorescence was determined by flow cytometry as described above.

In data set [7] the test system is PBMC (human peripheral blood mononuclear cells). The data set can be described thus: Cytotoxicity, alamar blue assay. In kind it is cell-based. The conditions noted are these: Homo sapiens, PBMC, non-cancer cells, 72 h, read-out: IC50 and 95% CI, PBMC.
From the text: HL-60 (human acute promyelocytic leukemia), K-562 (human chronic myelogenous leukemia), HCT116 (human colon carcinoma), HepG2 (human hepatocellular carcinoma), HSC-3 (human oral squamous cell carcinoma), SCC-9 (human oral squamous cell carcinoma), B16-F10 (mouse melanoma), MRC-5 (human lung fibroblast), WT SV40 MEF (wild-type immortalized mouse embryonic fibroblast) and BAD KO SV40 MEF (BAD gene knockout immortalized mouse embryonic fibroblast) cell lines were obtained from American Type Culture Collection (ATCC, Manassas, VA, USA). Human peripheral blood mononuclear cells (PBMC) were isolated using standard Ficoll density gradient from heparinized blood collected from 20- to 35-year-old, non-smoker healthy donors with informed consent (number 031019/2013) approved by Human Ethics Committee of Gonçalo Moniz Institute from Oswaldo Cruz Foundation (IGM-FIOCRUZ/BA), and all experiments were performed in accordance with relevant guidelines and regulations. Cells were cultured as recommended by ATCC guidelines and a mycoplasma stain kit (Sigma-Aldrich) was used to validate the use of cells free from contamination. Cell viability in all experiments was examined using the trypan blue exclusion (TBE) assay. Over 90% of the cells were viable at the beginning of the culture.
as §1

For data set [8], the system named is HL-60 cells. The data set can be described thus: Morphological analysis (May-Grunwald-Giemsa staining, light scattering). The class given is cell-based, human. Conditions: HL-60, 12 and 24 h; DOX 1 µM. The method, then:
To cell morphology evaluation, slides were prepared using cytospin and stained with May-Grunwald-Giemsa. Morphological changes were assessed by light microscopy (Olympus BX41, Tokyo, Japan) using Image-Pro software (Media Cybernetics, Inc. Silver Spring, USA). Light scattering features were determined by flow cytometry. At least 10^4 events were recorded per sample using a BD LSRFortessa cytometer along with BD FACSDiva Software (BD Biosciences, San Jose, CA, USA) and Flowjo Software 10 (Flowjo LCC, Ashland, OR, USA). Cellular debris was omitted from the analysis.

Data set [9] can be described thus: Toxicological evaluation in xenograft mice. In kind it is in vivo, C.B-17 SCID mice. The conditions noted are these: doxorubicin 0.1 mg/kg. As to the method:
To assess toxicological aspects, mice were weighed at the beginning and at the end of the experiment as described previously by Rodrigues et al.[26]. […] Hematological analysis was performed using the Advia 60 hematology system (Bayer, Leverkusen, Germany). Livers, kidneys, lungs and hearts were removed, weighed and examined for any signs of macroscopic lesions, color changes and/or hemorrhages. After macroscopic examination, tumors, livers, kidneys, lungs and hearts were fixed in 4% formalin buffer and embedded in paraffin. Tissue sections were stained with hematoxylin/eosin staining, and a pathologist performed the histological analyses under optical microscopy.

In data set [10] the test system is HL-60 cells. In words: Apoptosis quantification, annexin V-FITC/PI flow cytometry. The class given is cell-based, human. The method, then: Shortly, cells were washed twice with saline solution and resuspended in 100 μL of binding buffer plus 5 μL of propidium iodide (PI) and 5 μL of FITC Annexin V. Then, cells were gently mixed by vortexing and incubated for 15 min at room temperature in the dark. Finally, 400 μL of binding buffer was added to each tube, and the cell fluorescence was determined by flow cytometry, as described above. Percentage of viable, early apoptotic, late apoptotic and necrotic cells were measured. […] Cells were then analyzed by FITC Annexin V Apoptosis Detection assay as described above.
For orientation: Flow cytometry measures light scatter and fluorescence of single cells or particles in a stream.

The next data set deals with HL-60 cell xenografts. In words: Human myeloid leukemia xenograft model. The class given is in vivo, C.B-17 SCID mice. The conditions noted are these: 0.1 mg/kg intraperitoneal once a day for 13 consecutive days. The method, then:
Fifty six specific-pathogen-free (SPF) C.B-17 severe combined immunodeficient (SCID) mice (females, 23–26 g) were used in this study. The animals were obtained and maintained at animal facilities from Gonçalo Moniz Institute-FIOCRUZ (Salvador, Bahia, Brazil), and housed in cages with free access to food and water, and kept under a 12:12 h light-dark cycle (lights on at 6:00 a.m.). The animals were treated according to ethical principles for animal experimentation of SBCAL (Brazilian Association of Laboratory Animal Science), Brazil. Experimental protocol have been approved (number 06/2015) by Animal Ethics Committee of Gonçalo Moniz Institute-FIOCRUZ (Salvador, Bahia, Brazil).
Human myeloid leukemia xenograft model was carry out as described previously by Rodrigues et al.[26] with minor modifications. HL-60 cells (2.5 × 10^7 cells/500 µL) were implanted subcutaneously into the left front armpit of the mice. […] When the tumors reached 100 to 200 mm^3 (22 days after HL-60 cells injection), the animals were treated through the intraperitoneal route (200 µL per animal) once a day for 13 consecutive days. One day after the end of the treatment, the animals were anesthetized, and peripheral blood samples were collected from brachial artery. Animals were euthanized by anesthetic overdose, and tumors were excised and weighed.
A general note: Xenograft models place foreign cells or tissue in a host animal.

On to `COc1cccc2c1C(=O)c1c(O)c3c(c(O)c1C2=O)C[C@@](O)(C(=O)CO)C[C@@H]3O[C@H]1C[C@H](N)[C@H](O)[C@H](C)O1` [doxorubicin, reference compound], for which, in the data set with HL-60 cells [1], the “Reduction of the number of viable cells” value is reported as “reduced the number of viable cells”. Besides, the IC50 in data set [2] worked out at 1.43 µM; in data set [3], 0.02 µM; in [4] it was 0.04 µM; in data set [5], 0.41 µM; in [7], 5.17 µM. Moreover, in the data set on HL-60 cells [6], the “Mitochondrial transmembrane potential, in words” value is recorded as “induced depolarization of mitochondrial transmembrane potential”. Besides, the “Cell morphology, May-Grunwald-Giemsa staining” value in the data set on HL-60 cells [8] is on record as “presented changes associated with apoptosis”. The Kidney histopathology entry in data set [9] (complex 1 20 and 40 mg/kg) is on record as “Coagulation necrosis was observed in renal tubules”. For the same compound, in [9] (complex 1 20 and 40 mg/kg), the Lung histopathology entry was “tumor nodules were observed only in one animal”. In addition, the Body weight entry in [9] (mice bearing HL-60 cells, 13 days) was “decreased body weight”. Besides, in the data set on HL-60 cells [10] (HL-60, 12 and 24 h, DOX 1 µM), the “Apoptotic cells, in words” value was “induced apoptosis”. Moreover, in the data set with HL-60 cells [10] (HL-60, 2 h pre-treatment 50 µM Z-VAD(OMe)-FMK, then 24 h), the “Apoptosis on cotreatment with pan-caspase inhibitor Z-VAD(OMe)-FMK, in words” value is “led to apoptosis through caspases pathways”. The “Reduction of tumor weight” value with HL-60 cell xenografts was 62.0%.
